For one series, the target named is T1, OATP1B1 (Homo sapiens, UniProt Q9Y6L6).
T1 construct: expressed in transfected cells; host or cells: HEK293 (recombinant baculovirus-mediated transduction)
T1 sequence (Q9Y6L6 1-691): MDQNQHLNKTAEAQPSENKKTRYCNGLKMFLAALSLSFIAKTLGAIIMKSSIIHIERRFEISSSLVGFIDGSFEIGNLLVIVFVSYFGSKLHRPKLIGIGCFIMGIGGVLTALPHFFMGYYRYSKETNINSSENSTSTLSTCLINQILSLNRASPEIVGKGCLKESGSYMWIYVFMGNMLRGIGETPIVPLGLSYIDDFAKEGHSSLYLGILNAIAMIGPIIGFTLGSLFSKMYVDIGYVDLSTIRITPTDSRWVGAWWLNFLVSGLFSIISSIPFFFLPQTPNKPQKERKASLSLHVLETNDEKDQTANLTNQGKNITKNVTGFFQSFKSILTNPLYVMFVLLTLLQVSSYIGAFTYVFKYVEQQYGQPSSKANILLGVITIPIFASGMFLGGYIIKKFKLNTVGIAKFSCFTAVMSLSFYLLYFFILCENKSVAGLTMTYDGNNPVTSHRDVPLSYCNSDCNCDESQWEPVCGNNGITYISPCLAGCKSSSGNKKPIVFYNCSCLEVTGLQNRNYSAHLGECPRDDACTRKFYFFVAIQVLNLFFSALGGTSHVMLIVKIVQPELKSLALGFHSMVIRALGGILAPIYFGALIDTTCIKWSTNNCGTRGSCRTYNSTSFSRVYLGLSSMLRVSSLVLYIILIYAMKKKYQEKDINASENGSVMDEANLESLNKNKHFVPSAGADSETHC
Nature of the series: OATP1B1 inhibition, rosuvastatin uptake into transporter-expressing HEK293 cells. Format: cell-based. The settings on record: for IC50: IC50 (95% CI), μM OATP1B1, 2.5 μM rosuvastatin, 2 min, 30 min preincubation; for Calculated R-value OATP1B1: R = 1 + (I in,max,u/IC50), FDA cut-off ≥ 1.1. How it is done:
(§1) The human transporters OATP1B1, OATP1B3, OATP2B1, and OAT1‐OAT4 and a negative control protein (enhanced yellow fluorescent protein, eYFP) were transiently expressed in human embryonic kidney 293 (HEK293) cells by recombinant baculovirus‐mediated transduction. Baculoviruses carrying human genes for the transporters were prepared as reported previously. HEK293 cells were cultured in DMEM containing 10% fetal bovine serum at 37°C and 5% CO2 and passaged two to three times per week. For the transport studies, 0.05 × 10^6 cells for 48‐well plates (OATPs) or 0.06 × 10^6 cells for 24‐well plates (OATs) were seeded onto cell‐culture treated well plates coated with poly‐D‐lysine. After 1 day, cells were transduced to produce recombinant proteins by changing media to DMEM containing 30 μL (48‐well plates) or 60 μL (24‐well plates) of recombinant baculovirus and 3 mM (OATs) or 5 mM (OATPs) sodium butyrate in a total media volume of 500 μL. The cells were cultured for a further 2 days before the transport assays.
For the transport studies, media were removed and cells were washed once with warm transport uptake buffer (TP‐buffer—pH 7.4 HBSS with 25 mM HEPES and 4 mM sodium bicarbonate). Each experiment included triplicate (OATP) or duplicate (OAT) samples for every test condition. The uptake was started by removing liquid from wells and applying warm TP‐buffer (200 μL for 24‐well plates or 125 μL for 48‐well plates) containing a test compound to cells. Transport assays were terminated after a pre‐specified incubation time (reported in figure legends) by removing substrate solution and washing cells three times with cold TP‐buffer (300 μL for 48‐well plates and 400 μL for 24‐well plates). For the liquid chromatography mass spectrometry (LC–MS) analysis, compounds were extracted from cells with 125 μL (48‐well plates) or 250 μL (24‐well plates) of an ultrapure‐water solution containing 75% methanol and 0.1% formic acid, shaking at 250 RPM for 30 min. […] Samples were transferred to well plates, centrifuged at 3000 g for 30 min, and transferred to a new well plate for the analysis.
(§2) In the OATP inhibition assays, inhibitors in warm TP‐buffer were directly applied to cells after media removal, followed by a 30‐min preincubation step in the presence of inhibitors. […] OAT1 and OAT3 cells were lysed with 200 μL of 1 M sodium hydroxide for 10 min, and 150 μL of these samples were transferred to a black well plate for fluorescein quantification. […]
(§3) For the inhibition data analysis, the average of measured concentrations in the control cells was subtracted from the average of measured concentrations in transporter‐expressing cells for each inhibitor concentration and then normalized to the vehicle sample that represents 100% transport activity. […]

The conditions of series [1]: cited from earlier work.
For a further series, the target named is T2, OAT3 (Homo sapiens, UniProt Q8TCC7).
T2 sequence (Q8TCC7 1-542): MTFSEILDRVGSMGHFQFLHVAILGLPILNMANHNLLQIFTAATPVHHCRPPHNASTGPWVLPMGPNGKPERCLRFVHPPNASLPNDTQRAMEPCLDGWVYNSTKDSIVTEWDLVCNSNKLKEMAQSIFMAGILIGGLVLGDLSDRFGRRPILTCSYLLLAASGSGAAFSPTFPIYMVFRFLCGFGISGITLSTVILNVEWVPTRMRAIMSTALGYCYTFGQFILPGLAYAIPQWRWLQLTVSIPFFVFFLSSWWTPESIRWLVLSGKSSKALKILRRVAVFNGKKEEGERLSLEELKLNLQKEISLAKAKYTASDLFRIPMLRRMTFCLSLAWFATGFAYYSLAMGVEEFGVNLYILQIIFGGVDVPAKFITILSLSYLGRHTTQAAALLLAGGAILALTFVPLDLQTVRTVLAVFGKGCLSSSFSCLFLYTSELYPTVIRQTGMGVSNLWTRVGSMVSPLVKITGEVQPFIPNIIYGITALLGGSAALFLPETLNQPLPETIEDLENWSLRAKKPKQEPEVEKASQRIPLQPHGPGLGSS
In words: OAT3 inhibition, fluorescein uptake into HEK293 cells. The settings on record: R = I max,u/IC50, FDA cut-off ≥ 0.1. Format: cell-based. On the set-up: expressed in transfected cells; host or cells: HEK293 (recombinant baculovirus-mediated transduction). Here is the method:
as §1, with “After 1 day, cells were transduced to produce recombinant proteins by changing media to DMEM containing 30 μL (48‐well plates) or 60 μL (24‐well plates) of recombinant baculovirus and 3 mM (OATs) or 5 mM (OATPs) sodium butyrate in a total media volume of 500 μL. The cells were cultured for a further 2 days before the transport assays.” left out
as §2, §3

A word on the IC50: it is the concentration that inhibits the measured activity by half.

Where “and” joins values, the source holds several entries; their conditions need not be identical. Equal values may be shown once. Marks after values point to notes of the source that are not given here. Where only a bound is given, the exact number is not on record here.

Regarding `Cc1onc(-c2c(Cl)cccc2Cl)c1C(=O)N[C@@H]1C(=O)N2[C@@H]1SC(C)(C)[C@@H]2C(=O)O` [Dicloxacillin], on OATP1B1, the IC50 was 3.9 µM and 3.86 µM; the “Calculated R-value OATP1B1” value is listed as 2.4 ^a. Further, in series [1], the “decrease of renal clearance by probenecid” value is given as 4 fold; the “increase of C max and AUC by cyclosporine and probenecid” value is listed as less than 2 fold. The “Calculated R-value OAT3” value at OAT3 is 0.07 ^c.

In the case of `Cc1onc(-c2c(F)cccc2Cl)c1C(=O)N[C@@H]1C(=O)N2[C@@H]1SC(C)(C)[C@@H]2C(=O)O` [Flucloxacillin], on OATP1B1, the half-maximal inhibitory concentration (IC50) came to 31 µM and the “Calculated R-value OATP1B1” value is on record as 1.5 ^a. At OAT3, the “Calculated R-value OAT3” value is 0.1 ^c.

The values are drawn from article PMC12865225 (Clinical and Translational Science, 2026).
